In paper PMC3059353 (Biochemistry, 2011):

Molecular target: T1, adenine deaminase (ADE) (Escherichia coli, UniProt P31441)
T1 sequence (P31441 1-588): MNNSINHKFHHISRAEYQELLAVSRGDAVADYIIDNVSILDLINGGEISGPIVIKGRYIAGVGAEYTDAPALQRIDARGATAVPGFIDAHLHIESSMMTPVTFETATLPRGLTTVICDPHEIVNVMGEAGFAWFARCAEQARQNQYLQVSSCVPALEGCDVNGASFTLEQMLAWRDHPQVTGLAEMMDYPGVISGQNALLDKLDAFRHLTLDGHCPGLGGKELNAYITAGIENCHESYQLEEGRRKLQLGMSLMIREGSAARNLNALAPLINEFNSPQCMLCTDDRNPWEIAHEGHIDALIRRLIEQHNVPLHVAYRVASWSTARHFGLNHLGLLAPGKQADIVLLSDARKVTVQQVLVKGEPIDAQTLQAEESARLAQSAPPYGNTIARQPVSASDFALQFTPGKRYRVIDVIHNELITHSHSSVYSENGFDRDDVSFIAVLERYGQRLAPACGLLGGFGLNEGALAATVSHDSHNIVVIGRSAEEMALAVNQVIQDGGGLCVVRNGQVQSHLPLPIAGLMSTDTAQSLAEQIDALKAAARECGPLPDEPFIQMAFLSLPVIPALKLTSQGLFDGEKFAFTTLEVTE
Test: GDH-coupled adenine deamination assay after […] h incubation with Mn/Mn-ADE
Assay type: biochemical

Clc1ncnc2[nH]cnc12 [6-chloropurine]
Ki: 130 ± 15 nM
